Assays:
Type in all cases: cell-based
hPPARδ = target: T1, hPPARδ (Homo sapiens, UniProt Q03181); assay: Gal4-hPPARδ chimera transactivation in COS-7 cells (luciferase); settings: induction factor standardised to an internal reference, read-out: % hGal4-PPAR transactivation (10 μM) delta
T1 construct: fragments of DNA amplified by PCR corresponding to the DEF domains of the human PPARα, PPARγ PPARδ nuclear receptors; expressed in transfected cells; host or cells: COS-7 (monkey kidney fibroblast line)
T1 sequence (Q03181 211-439 limits assumed): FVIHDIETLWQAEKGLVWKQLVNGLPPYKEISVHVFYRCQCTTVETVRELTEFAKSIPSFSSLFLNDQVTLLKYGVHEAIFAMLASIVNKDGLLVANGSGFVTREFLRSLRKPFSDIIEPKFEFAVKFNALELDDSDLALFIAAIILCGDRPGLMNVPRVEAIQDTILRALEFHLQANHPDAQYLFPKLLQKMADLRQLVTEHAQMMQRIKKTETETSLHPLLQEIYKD
Procedure: (§1) The PPAR activation was evaluated in vitro on a monkey kidney fibroblast line (COS-7) by measuring the transcriptional activity of chimeras constituted of the DNA binding domain of the Gal4 transcription factor of yeast and of the binding domain to the ligand of the different PPARs. The compounds were tested at doses between 0.01 and 100 μM on Gal4-PPARα, γ, δ chimeras. The induction factor (ratio between the luminescence induced by the compound and the luminescence induced by the control) was measured for each condition: the higher this factor, the more the compound has PPAR-activating properties.
(§2) The COS-7 cells from ATCC were cultivated in a DMEM medium supplemented with 10% (vol/vol) of foetal calf serum, 100 U/ml penicillin (Gibco, Paisley, UK) and 2 mM L-Glutamine (Gibco, Paisley, UK). The cells were incubated at 37° C. in a humid atmosphere containing 5% CO2.
(§3) The Gal4(RE)_TkpGL3, pGal4-hPPARα, pGal4-hPPARγ, pGal4-hPPARδ and pGal4-φ plasmids have been described in the literature (Raspe, Madsen et al. 1999). The pGal4-hPPARα, pGal4-hPPARγ and pGal4-hPPARδ constructs were obtained by cloning in the pGal4-φ vector of fragments of DNA amplified by PCR corresponding to the DEF domains of the human PPARα, PPARγ PPARδ nuclear receptors.
(§4) COS-7 cells were plated in 96 wells plates (5×10^4 cells/well) and transfected, in the presence of 10% foetal calf serum and 150 ng DNA per well, with a pGal4-PPAR/Gal4(RE)_TkpGL3 ratio of 1/10. The cells were then incubated for 24 hours with the compounds to be tested, without serum. At the end of the experiment, the cells were lysed and the luciferase activities were determined by means of Steady Glow Luciferase (Promega) according to the supplier's recommendations.
(§5) The inventive compounds were tested at 10 μM on the 3 PPAR isoforms. The results obtained are detailed in table (1). The transactivation measured is expressed as a response ratio versus an internal reference for each of the isoforms.
(§6) The compounds were tested at 10 μM on the Gal4-PPARα, γ, δ chimeras. The induction factor, i.e. the ratio between the luminescence induced by the compound and the luminescence induced by the control, was measured for each condition. It was then standardised in comparison to an internal reference and the results were then expressed in percentages : the higher the activation percentage, the more the compound has PPAR-activating properties.

hPPARα = target: T2, hPPARα (Homo sapiens, UniProt Q07869); assay: Gal4-hPPARα chimera transactivation in COS-7 cells (luciferase); settings: induction factor standardised to an internal reference, read-out: % hGal4-PPAR transactivation (10 μM) alpha
T2 construct: fragments of DNA amplified by PCR corresponding to the DEF domains of the human PPARα, PPARγ PPARδ nuclear receptors; expressed in transfected cells; host or cells: COS-7 (monkey kidney fibroblast line)
T2 sequence (Q07869 239-466 limits assumed): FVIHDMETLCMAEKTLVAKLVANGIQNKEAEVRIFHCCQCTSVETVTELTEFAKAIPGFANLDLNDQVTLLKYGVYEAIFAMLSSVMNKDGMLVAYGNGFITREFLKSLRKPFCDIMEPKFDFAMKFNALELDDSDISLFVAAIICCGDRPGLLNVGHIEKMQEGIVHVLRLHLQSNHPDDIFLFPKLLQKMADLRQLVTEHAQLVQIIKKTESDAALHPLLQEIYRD
Procedure: as §1, §2, §3, §4, §5, §6

hPPARγ = target: T3, hPPARγ (Homo sapiens, UniProt P37231); assay: Gal4-hPPARγ chimera transactivation in COS-7 cells (luciferase); settings: induction factor standardised to an internal reference, read-out: % hGal4-PPAR transactivation (10 μM) gamma
T3 construct: fragments of DNA amplified by PCR corresponding to the DEF domains of the human PPARα, PPARγ PPARδ nuclear receptors; expressed in transfected cells; host or cells: COS-7 (monkey kidney fibroblast line)
T3 sequence (P37231 238-503 limits assumed): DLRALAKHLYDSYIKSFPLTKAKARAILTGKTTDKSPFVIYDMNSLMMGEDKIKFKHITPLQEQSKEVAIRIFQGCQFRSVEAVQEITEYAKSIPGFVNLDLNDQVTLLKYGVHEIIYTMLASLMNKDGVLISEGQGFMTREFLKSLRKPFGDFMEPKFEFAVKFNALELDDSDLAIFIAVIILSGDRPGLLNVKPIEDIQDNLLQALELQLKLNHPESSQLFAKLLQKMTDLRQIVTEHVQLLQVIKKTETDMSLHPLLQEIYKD
Procedure: as §1, §2, §3, §4, §5, §6

SMILES | activation at 10 µM (hPPARδ) [%] | activation at 10 µM (hPPARα) [%] | activation at 10 µM (hPPARγ) [%]
CC(NC(=O)Cc1ccc(OC(C)(C)C(=O)O)cc1)c1ccccc1N1CCCCC1 (stereo not drawn) [Compound 2, 2-[4-[1-(1-(2-(1-piperidinyl)phenyl)ethyl)aminocarbonylmethyl]phenoxy]-2-methylpropanoic acid] | < 10 | < 10 | 27
CCCCCCC(NC(=O)Cc1ccc(OC(C)(C)C(=O)O)cc1)c1ccccc1N1CCCCC1 (stereo not drawn) [Compound 5, 2-[4-[1-(1-(2-(1-piperidinyl)phenyl)heptyl)aminocarbonylmethyl]phenoxy]-2-methylpropanoic acid] | < 10 | 31 | 82
Cc1cc(CC(=O)NC(CC(C)C)c2ccccc2N2CCCCC2)cc(C)c1OC(C)(C)C(=O)O (stereo not drawn) [Compound 11, 2-[2,6-dimethyl-4-[1-(3-methyl-1-(2-(1-piperidinyl)phenyl)butyl)aminocarbonylmethyl]phenoxy]-2-methylpropanoic acid] | < 10 | < 10 | 47
CC(NC(=O)Cc1ccc(OC(C)(C)C(=O)O)cc1)c1ccccc1N1CCCCCC1 (stereo not drawn) [Compound 15, 2-[4-[1-(1-(2-(1-hexamethyleneimino)phenyl)ethyl)aminocarbonylmethyl]phenoxy]-2-methylpropanoic acid] | < 10 | < 10 | 42
CCCCC(NC(=O)Cc1ccc(OC(C)(C)C(=O)O)cc1)c1ccc(-n2ccc3ccccc32)cc1N1CCCCC1 (stereo not drawn) [Compound 38, 2-[4-[1-(1-(2-(1-piperidinyl)-4-(1H-indolyl)phenyl)pentyl)aminocarbonylmethyl]phenoxy]-2-methylpropanoic acid] | 18 | 13 | < 10
CC(C)CC(NC(=O)Cc1ccc(OCCCCOc2ccc(OC(C)(C)C(=O)O)cc2)cc1)c1ccccc1N1CCCCC1 (stereo not drawn) [Compound 40, 2-{4-{4-[4-[1-(3-methyl-1-(2-(1-piperidinyl)phenyl)butyl)aminocarbonylmethyl]phenoxy]butoxy}phenoxy}-2-methylpropanoic acid] | < 10 | 20 | 55
CCCCC(NC(=O)Cc1ccc(OCC(C)(C)C(=O)O)cc1)c1ccccc1N1CCCCC1 (stereo not drawn) [Compound 42, 3-[4-[1-(1-(2-(1-piperidinyl)phenyl)pentyl)aminocarbonylmethyl]phenoxy]-2,2-dimethylpropanoic acid] | < 10 | 32 | < 10
CCCCC(NC(=O)Cc1ccc(OC(C)(C)C(=O)O)cc1)c1ccccc1N1C[C@H](C)C[C@H](C)C1 (stereo partly drawn) [Compound 43, 2-[4-[1-(1-(2-((3S,5R)-3,5-dimethylpiperidine-1-yl)phenyl)pentyl)aminocarbonylmethyl]phenoxy]-2-methylpropanoic acid] | < 10 | 27 | 18
CCN(CCCC(C)(C)C(=O)O)c1ccc(CC(=O)NC(CC(C)C)c2ccccc2N2CCCCC2)cc1 (stereo not drawn) [Compound 46, 5-{N-ethyl-N-[4-[1-(3-methyl-1-(2-(1-piperidinyl)phenyl)butyl)aminocarbonylmethyl]phenyl]amino}-2,2-dimethylpentanoic acid] | < 10 | 58 | 12
CCCCC(NC(=O)Cc1ccc(OCCCC(Cl)(Cl)C(=O)O)cc1)c1ccccc1N1CCCCC1 (stereo not drawn) [Compound 47, 5-[4-[1-(1-(2-(1-piperidinyl)phenyl)pentyl)aminocarbonylmethyl]phenoxy]-2,2-dichloropentanoic acid] | < 10 | 42 | < 10
COc1ccc(CC(NC(=O)Cc2ccc(OC(C)(C)C(=O)O)cc2)c2ccccc2N2CCCCC2)cc1 (stereo not drawn) [Compound 48, 2-[4-[1-(2-(4-methoxyphenyl)-1-(2-(1-piperidinyl)phenyl)ethyl)aminocarbonylmethyl]phenoxy]-2-methylpropanoic acid] | < 10 | < 10 | 17
CCCCC(NC(=O)Cc1ccc(OC(C)(C)C(=O)O)cc1)c1ccc(CCc2ccccc2)cc1N1CCCCC1 (stereo not drawn) [Compound 50, 2-[4-[1-(1-(2-(1-piperidinyl)-4-(phenethyl)phenyl)pentyl)aminocarbonylmethyl]phenoxy]-2-methylpropanoic acid] | 11 | < 10 | < 10
CCCC(NC(=O)Cc1ccc(OC(C)(C)C(=O)NS(C)(=O)=O)cc1)c1ccccc1N1CCCCC1 (stereo not drawn) [Compound 66, N-[methylsulfonyl]-2-[4-[1-(1-(2-(1-piperidinyl)phenyl)butyl)aminocarbonylmethyl]phenoxy]-2-methylpropanamide] | < 10 | 40 | < 10
CCCCC(NC(=O)Cc1ccc(OC(C)(C)C(=O)NS(C)(=O)=O)cc1)c1ccccc1OC (stereo not drawn) [Compound 67, N-[methylsulfonyl]-2-[4-[1-(1-(2-(methoxy)phenyl)pentyl)aminocarbonylmethyl]phenoxy]-2-methylpropanamide] | < 10 | < 10 | < 10
CCCCC(NC(=O)Cc1ccc(OC(C)(C)C(=O)O)cc1)c1ccccc1OCC(C)C (stereo not drawn) [Compound 68, 2-[4-[1-(1-(2-(isobutyloxy)phenyl)pentyl)aminocarbonylmethyl]phenoxy]-2-methylpropanoic acid] | < 10 | < 10 | 37
CCCCC(NC(=O)Cc1ccc(OCc2nnn[nH]2)cc1)c1ccccc1N1CCCCC1 (stereo not drawn) [Compound 70, 2-(4-((1H-tetrazol-5-yl)methoxy)phenyl)-N-[1-(1-(2-(1-piperidinyl)phenyl)pentyl)]acetamide] | < 10 | < 10 | 13
CCCCC(NC(=O)Cc1ccc(OC(C)(C)C(=O)O)c(OC)c1)c1ccccc1N1CCCCC1 (stereo not drawn) [Compound 73, 2-[2-methoxy-4-[1-(1-(2-(1-piperidinyl)phenyl)pentyl)aminocarbonylmethyl]phenoxy]-2-methylpropanoic acid] | < 10 | < 10 | 42

Reference: patent US20060079696A1, “Substituted compounds derived from N-(benzyl)phenylacetamide, preparation and uses” (GENFIT, priority 2004, published 2006)
